For 89 molecules, melting point results are on record in a melting point compilation (Tetko et al.; mined from patent text by program, amines drawn as free bases though some values may be those of a salt).

A word on the melting point: it is the temperature of the solid-liquid transition. For the molecule `O=C(c1ccc(Cl)cc1)C(Cn1cncn1)c1ccc(Cl)cc1` (centres undefined), the melting point was in the range of 126 to 128 °C. The result for `O=S(=O)(Cc1ccc(Cl)cc1)Cc1ccc(Cl)cc1` reads 94 to 95 °C; that for `COC(=O)COc1ccc2cc(CNC(=O)c3cc(-c4ccc(Cl)cc4)oc3C(F)(F)F)ccc2c1`, 182 to 183 °C. The result for `COC1(F)C=CC=C(c2cc(CBr)c(=O)n(Cc3ccc(F)cc3)n2)C1` (centres undefined) reads 120 to 125 °C; that for `CCCCN1CCC(NC(=O)c2cnc3c(OC)cccc3c2Nc2ccc(C(=O)NC3CCN(Cc4ccccc4)CC3)cc2)CC1`, 215 to 220 °C; that for `CCCCCCCCCCCCCCCCCCOC(=O)CP(=O)(OCC)OCC`, 28 to 31 °C. The result for `CC12CCC(=O)C=C1NCC1C2CCC2(C)C(C(=S)c3ccccn3)CCC12` (centres undefined) reads 190 to 202 °C; that for `CC(C)(C)OC(=O)NCCNC(=O)c1cc(Br)ccn1`, 134 °C.

The molecule `Cc1ccc(N2C(=O)NC(=O)C23CCNCC3)cc1` showed a melting point of 128 to 130 °C. The result for `N#Cc1c(Cl)cccc1CSCCNC(=O)c1c(Cl)cccc1Cl` reads 166 to 168 °C; that for `COc1ccc(Oc2ccc3c(c2)C=C(C(=O)O)C(C(F)(F)F)O3)cc1` (centres undefined), 182 to 183 °C; that for `COC(=O)COc1ccc2c(O)c(C(C)=O)ccc2c1`, 118 to 120 °C. The result for `O=C(c1cccc(C(F)(F)F)c1)c1ncccc1C(O)=NNc1c(Cl)cc(C(F)(F)F)cc1Cl` reads 92 to 96 °C. Turning to `N#CNc1cc(F)ccc1-c1ccccc1`, the melting point was 68 to 70 °C. The result for `COCc1cccc2oc(C(=O)Nc3ccc(-c4ccc(S(=O)(=O)NC(C(=O)O)C(C)C)cc4)cc3)c(C)c12` (centres undefined) reads 227 to 230 °C.

For the molecule `COc1ccc(N2CCN(c3ccc(N)cc3)CC2)cn1`, the melting point was found to be 111 °C. The result for `CC(OC(=O)c1ccccc1)P(=O)(O)OC(CCCCN)C(=O)N1CCCC1C(=O)O` (centres undefined) reads 186 to 192 °C; that for `Cc1c(O)c(C=O)c2nc3c(O)ccc(C(=O)NCCN(C)C)c3nc2c1O`, above 250 °C. The result for `COC(=O)C1=NNC(C)=C(C(=O)OC(C)C)C1c1cccc([N+](=O)[O-])c1` (centres undefined) reads 193 °C. The result for `CCOC(=O)c1cnc(CC)nc1NCc1ccc(-c2ccccc2-c2nnn[nH]2)cc1` reads 114 to 116 °C; that for `COc1ccc(NC(=O)c2c(Cl)cccc2Cl)c2nccc(NN)c12`, above 250 °C; that for `O=Cc1ccc2nccnc2c1`, 134 °C. `Cn1c(C=O)cc2ccccc21` gave a melting point of 83 °C. Take `Sc1nc2ccc(Cl)cc2c2nc(-c3ccc(Br)o3)nn12`: the melting point was in the range of 273 to 276 °C. The result for `Cc1ccc([N+](=O)[O-])cc1/C=C/c1nc(C(C)C)cs1` reads 87 to 88 °C.

Molecule `CCC(=O)N1CCC(NC(=O)Nc2ccc([N+](=O)[O-])cc2)CC1` registered a melting point of 240 to 241 °C. The result for `CCN(C#N)C(=O)C(C)Oc1ccc(Oc2cnc3cc(F)ccc3n2)cc1` (centres undefined) reads 108 to 111 °C; that for `COc1ccc2oc3ccc([N+](=O)[O-])cc3c2c1C(=O)Nc1ccncc1`, 222 °C. As to `CC(=O)c1c(C)[nH]c(CC(C)(C)C)c1C`, the melting point was 156 to 163 °C. The result for `Cc1nn(-c2cccc(C(F)(F)F)c2)cc1C(=O)N(CC(=O)O)c1ccc(OCC(C)(C)C)c(C#N)c1` reads 110 to 112 °C; that for `CCOC(=O)C(=O)Nc1c(C)c(C)c2c(c1C)C(c1ccc(C(C)C)cc1)CO2` (centres undefined), 83 to 84 °C. The result for `CN1CCCC(c2cccc3c2CC(=O)N3)C1` (centres undefined) reads 160 °C; that for `CCOC(=O)c1cnn(-c2cc(Cl)cc(Cl)c2)c1C#N`, 101 to 103 °C; that for `Cn1nc(C#N)c(Nc2ccc(F)cc2[N+](=O)[O-])n1`, 159 to 160 °C. The result for `Cc1nn2ccccc2c1C=O` reads 77 to 79 °C; that for `CS(=O)(=O)c1ccc(-c2sc(-c3ccc(Br)s3)nc2-c2ccc(F)cc2)cc1`, 190 to 191 °C. In turn, `NCCOc1ccc(C=CC(=O)N2CCc3c([nH]c4ccccc34)C2c2ccc3c(c2)CCO3)cc1` (centres undefined) yielded a melting point of 186 °C. The result for `O=C(O)c1ccccc1Oc1ccccc1O` reads 147 to 149 °C; that for `CCOC(=O)Cc1cccc2c(=O)cc(C3=CCCCC3)oc12`, 126 to 127 °C. The result for `O=C(C[C@H](NC(=O)OCc1ccccc1)C(=O)Nc1cc(Cc2n[nH]c(=O)c3ccccc23)ccc1F)OCc1ccccc1` reads 76 to 80 °C; that for `CCCc1nc2c(N)nc3cc(OCCN4CCCC4)ccc3c2s1`, 124 to 127 °C; that for `NC(=NO)c1ccc(I)cc1`, 155 to 161 °C.

Molecule `COc1ccc(NC(=O)N(C)Cc2cccc3c2CN(C2CCC(=O)NC2=O)C3=O)cc1` (centres undefined) showed a melting point of 245 to 247 °C. The result for `CC(=O)Nc1ncc(S(=O)(=O)NC(C)(C)CO)s1` reads 206 °C; that for `CCC1(COCCCCCCOc2ccc(C(=O)O)cc2)COC1`, 58.5 °C. The result for `COc1ccc(CCSc2c(O)cc(-c3ccccc3)oc2=O)cc1` reads 144 to 145 °C; that for `CN(C)C(=O)Cn1c(-c2cccc(Br)c2)nc2cccnc21`, 144 to 146 °C. The result for `CC(=O)Nc1cccc(NC(=O)C=C2CC(C(=O)O)Nc3cc(Cl)cc(Cl)c32)c1` (racemic) reads 190 to 193 °C. As for `COc1cccc(COc2ncc(F)c(NS(N)(=O)=O)n2)c1`, the melting point fell in the range of 126 to 130 °C. The result for `CCCCc1ncc(/C=C/CC(=O)O)n1Cc1ccccc1Cl` reads 135 to 137 °C. The result for `Cc1nc2c(-c3cccc(N4CCN(CCO)CC4)c3)cnn2c(N)c1-c1ccc(F)cc1` reads 209 to 212 °C; that for `CCCCOc1ccc(S(=O)(=O)N2CCC(N(Cc3ccccc3)CC(O)COc3cccc4[nH]c5ccccc5c34)C2)cc1` (centres undefined), 73 to 76 °C; that for `COC(=O)c1ccc(O)cc1NC(=O)c1ccc(C(C)(C)C)cc1`, 146 to 148 °C. As to `COc1ccc(SC2SC(=O)NC2=O)cc1` (centres undefined), the melting point lay in the range of 89 to 91 °C. The result for `COc1ccc(CC(=O)c2ccc(OC)c(OC)c2)cc1OC` reads 105 to 107 °C. The result for `O=C(O)c1ccc(I)cc1F` reads 158 to 159 °C; that for `CCCCS(=O)(=O)NC1Cc2ccc(C3=NNC(=O)CC3)cc2C1` (single isomer, unassigned; (+)), 173 to 174 °C. The result for `O=C(NC(=O)N1CCC(Cc2ccccc2)CC1)c1ccc2[nH]ccc2c1` reads 110 to 112 °C. `O=C(O)Cc1cc(C(=O)c2ccc(Cl)cc2)sc1-c1ccccc1` displayed a melting point of 142 to 143 °C. The result for `O=C(O)c1cc(-c2ccccc2)c2sccc2c1` reads 234 °C. `O=C(c1cccc(F)c1)N1CCc2cc(S(=O)(=O)N3CC(c4ccccc4)NC3=O)ccc21` (centres undefined) yielded a melting point of 202 °C. The result for `CCCN1CC(c2cccc(Br)c2)=C(c2ccc(S(N)(=O)=O)cc2)C1=O` reads 162 to 163 °C; that for `Nc1c(NCCCO)c(=O)c1=O`, 256 to 258 °C. Take `Nc1cc(C(=O)O)c(N)c2c1C(=O)c1ccccc1C2=O`: the melting point came out at 352 °C. The result for `CCCn1c(=O)c2[nH]c(/C=C/c3cccc(F)c3)nc2n(CCC)c1=O` reads 265 to 266 °C. Consider `COCCc1nc2c(N)nc3ccc(CCC(=O)N(C)C)cc3c2n1CCCN1CCCC1=O`, for which the melting point is 184 to 186 °C. The result for `N=C(NS(=O)(=O)C=Cc1ccccc1)c1ccccc1` reads 192 to 194 °C. The molecule `CCOC(=O)C(C#N)(CCN1CCOCC1)c1ccc(C(F)(F)F)cc1` (centres undefined) gave a melting point of 96 to 97 °C. The result for `O=C(Cc1ccccc1)N[C@@H]1C(=O)N2C(C(=O)O)=C(OS(=O)(=O)C(F)(F)F)NC[C@H]12` (racemic) reads 100 to 102 °C. The result for `Oc1cc2c3ccc(O)c(O)c3n(Cc3c(Cl)cccc3Cl)c2cc1O` reads 263 to 265 °C; that for `C=CS(=O)CCNC(=O)CCS(=O)(=O)C=C` (centres undefined), 93 °C.

As to `O=C(CN1CCC(Oc2ccccc2)CC1)Nc1ccc2[nH]c(=O)oc2c1`, the melting point is 190 to 196 °C.

`Cn1cnc2c1C(=O)N1CCN=C1N2Cc1ccc(Cl)cc1`: the melting point was 182 to 184 °C.

`C[Si](C)(C)CC(O)(Cn1nc[nH]c1=S)c1ccc(F)cc1` (centres undefined) showed a melting point of 107 °C. The result for `CSC(=C[N+](=O)[O-])NCCSCc1ccsn1` reads 64.5 to 65.5 °C; that for `CN(C)C1(c2ccccc2)CCC(C(O)CN2Cc3ccccc3C2)CC1` (centres undefined), 130 to 135 °C; that for `C#Cc1cccc(Oc2nc(Cl)nc(Oc3cccc(C#C)c3)n2)c1`, 121 to 125 °C. In turn, `O=C(Oc1ccc(-c2cc3ccccc3[nH]2)cc1)c1ccccc1` registered a melting point of 220 °C. The result for `CN(C)C(=O)N1CC(Sc2ccc(Cl)cc2)C1` reads 96 to 97 °C; that for `CCCCCCCCNP(N)(N)=O`, 102 to 114 °C; that for `O=c1[nH]cccc1-c1ccccc1`, 223 to 229 °C.

For the molecule `NS(=O)(=O)c1cc(C(=O)O)cc(NCc2ccccc2)c1Nc1ccccc1`, the melting point is 248 to 249 °C. The result for `O=C(O)c1ccc(C(c2ccccc2)c2ccc(Cl)cc2)cn1` (centres undefined) reads 200 to 203 °C; that for `CC(C)c1cccc(C(C)C)c1NC(=O)CN1CCN(CCSc2nc3ccccc3o2)CC1`, 161 to 163 °C. The result for `c1ccc(C(N=C2NCCCN2)c2ccccc2)cc1` reads 238 to 242 °C. `CCOC(=O)C1=CC(C(=O)c2cc(Br)ccc2O)=CN2CCc3c([nH]c4ccc(OC)cc34)C12C(=O)OCC` (centres undefined) displayed a melting point of 225 °C. For the molecule `c1cn(CCCOc2ccc(-c3noc(C4CC4)n3)cc2)cn1`, the melting point lay in the range of 98 to 100 °C.

Consider `CCCCCCOC(C)c1ccc(-c2ccc(C(=O)O)cc2)cc1` (single isomer, unassigned; (+)), for which the melting point came out at 154 °C.

Take `CN1CN(C)C(=S)N(c2ccccc2)C1`: the melting point lay in the range of 85 to 87 °C.
